Experimental data published in publication PMC11408460 (Cellular and Molecular Life Sciences: CMLS, 2024).
Residues, ends and D or L forms follow the SMILES beside them.

Columns and labels:
HeLa GL cells [1] = test: Autophagy quantification via flow cytometry (membrane-bound eGFP-LC3B), HeLa GL; assay type: cell-based; conditions: 4 h; for autophagosome levels, versions of HBA1(120–132): 1 mg/ml, co-treatment with 20 µM Chloroquine, n = 10–24
Description: A detailed protocol for quantification of the number of autophagosomes has previously been published. In brief, HEK293T, HeLa, and THP-1 cell lines stably expressing eGFP-LC3B (labelled as -GL respectively) were used. After cells were treated for 4 h with respective substance/fraction, cells were harvested by removing the medium and adding 0.05% trypsin (PAN Biotech). Afterwards cells were washed once with PBS and permeabilized with 0.05% (w/v) Saponin (Sigma-Aldrich) in PBS. Non-membrane bound eGFP-LC3B was washed out using PBS. Cells were fixed in 4% (w/v) paraformaldehyde in PBS. Quantification of the membrane associated eGFP-LC3B was performed using flow cytometry FACS Canto II, BD Biosciences. The mean eGFP-LC3B fluorescence intensity of the water control was then subtracted from each sample.
To discover endogenous regulators of autophagy, we analyzed a human peptide library derived from bone marrow (BM). In brief, marrow was removed from 1.5 kg human femur bones and homogenized in acetic acid. The homogenate was filtered to contain only peptides with a molecular mass below 30 kDa. The BM library was initially separated on a reversed-phase column. To analyze the autophagy-modulating properties of individual peptide fractions, we used a high-throughput flow cytometry-based autophagosome quantification system. A hallmark of autophagy is the transition from soluble LC3B-I to autophagosome-associated LC3B-II. In GFP-LC3B expressing HeLa cells (HeLa GL), soluble GFP-LC3B is washed out by mild permeabilization and the remaining membrane-bound GFP-LC3B is quantified by FACS as a proxy for autophagosome numbers. Changes in autophagosome content are visualized as deviations from the background (i.e. carrier) control. […] Further purification identified subfraction BM.25.40.28 as bioactive (Fig. 1c). To identify the active peptide(s) we subjected fractions BM.25.40.26 to BM.25.40.30 to analysis by mass spectrometry (Supplementary data 1). Peptides with a molecular mass from ~ 750 Da to 5360 Da and a length from 7 to 57 amino acids were found in the fractions (Supplementary Fig. 1a). […]

[2] = 1 mg/ml peptide in 1 × PBS, 22 °C, absorbance 330 nm, triplicates, corrected against PBS
Description: 100 µl peptide solution was transferred to transparent 96-well F-bottom microplates (Greiner) and immediately processed. Before the measurement, solutions were briefly mixed by double-orbital shaking for 60 s at 240 rpm. Measurements were done at 22 °C in triplicates using a TECAN Spark plate reader at a wavelength of 330 nm and a bandwidth of 3.5 nm. Values were corrected against 1 × PBS and averaged.

[3] = HBA1(111–132) incubated in human plasma, 37 °C, mass spectrometry
Description: (§1) The mixture was centrifuged at 13,000 rpm for 30 s, and 150 µl of the supernatant was mixed with 750 µl 10% acetic acid in ice. The samples were analyzed by an Axima Confidence MALDI-TOF MS (Shimadzu) in linear mode using exactly the same measurement conditions for all samples spotted on a 384-well plate. Wells were coated with 1 µl of 5 mg/ml CHCA previously dissolved in matrix diluent (Shimadzu), and the solvent was allowed to evaporate. Then, each sample (0.5 µl), previously mixed with matrix (0.5 µl), was applied onto the dry pre-coated well, and the solvent was allowed to evaporate. Laser shots were automatically done following a regular circular raster of a diameter of 2000 µm and spacing of 200 µm on each well; 100 profiles were acquired per sample, and 20 shots were accumulated per profile. An accelerating voltage of 20 kV was applied to the ion source. Three experiments were performed, and the measurements of each sample were done in triplicate (81 measurements in total). The measurement and MS data processing (peak area calculation) were controlled by MALDI-MS Application Shimadzu Biotech Launchpad 2.9.8.1 (Shimadzu). Half-lives were calculated by GraphPad Prism 9.3.1 (GraphPad Software, LLC).

HeLa GL cells [4] = test: Autophagy quantification by immunofluorescence (GFP-LC3B puncta area); assay type: cell-based; conditions: 4 h, peptides 1 mg/ml, Chloroquine 10 µM, Torin-1 1 µM, confocal microscopy, n = 32–110 cells
Description: HeLa GL cells were grown on coverslips (VWR) and treated for 4 h with respective substance. Afterwards, cells were fixed with 4% (w/v) PFA (Santa Cruz) for 20 min and permeabilized as well as blocked with 0.5% (v/v) Triton-X-100 (Sigma-Aldrich) and 5% (v/v) fetal bovine serum (Gibco) PBS for 1 h, both at RT. Cells were then mounted on microscope slides (VWR) in 4′,6-diamidino-2-phenylindole (DAPI, VWR)-containing Mowiol mounting medium (Mowiol 4–88 10% (w/v, Carl Roth), glycerol 25% (w/v, Sigma-Aldrich), H2O 25% (v/v), 0.2 M Tris HCl pH 8.5 50% (v/v, AppliChem GmbH, VWR), DABCO 2.5% (w/v, Carl Roth)) to co-stain nuclei. After acquiring ≥ 30 randomly selected cells using a Zeiss LSM 710 confocal microscope, a custom ImageJ (Version 1.54j) macro was used to analysis the total area of the cytoplasmic eGFP-LC3B puncta as previously described.
Scale bar, 10 µm. DAPI (blue), nuclei. e Quantitative analysis of the LC3B-GFP area per cell of the data in (d). Lines represent geometric mean with 95% confidence interval, n = 32–110. […] Student’s t-test with Welch correction. *p < 0.05; **p < 0.01; ***p < 0.001

[5] = human; cited from earlier work
in vitro = conditions: human, plasma
Description: as §1

Circular dichroism = assay type: physicochemical; conditions: 10 mM phosphate buffer pH 7.4, 25 °C; 130 µM HBA1(120–132), 54 µM HBA1(111–132), 2.1 µM full-length human HB
Description: Circular dichroism spectroscopy was recorded on a JASCO J-1500 spectrophotometer at 25 °C using a 0.1 cm path length quartz cuvette from Hellma Analytical. Data points were collected at a resolution of 0.2 nm, an integration time of 2 s and a scanning speed of 5 nm min-1. Each spectrum was the result of three accumulated independent scans. Phosphate buffer solution (10 mM, pH = 7.4) was employed to solubilize the samples. […] Background subtraction was performed using the solvent. Secondary structure estimation (SSE) for the samples was conducted using the CD Multivariate SSE program included in the JASCO spectrometer.

Compound: D128A: HBA1(120–132) with aspartic acid exchanged for alanine (PAVHASLAKFLAS; UniProt P69905 120-132, looked up, fragment D127A)
- autophagosome levels, versions of HBA1(120–132) (HeLa GL cells [1]): does not alter the function
- solubility (precipitation turbidity, optical density) [2]: does not alter the function nor the solubility

Compound: CC(C)C[C@H](NC(=O)[C@H](C)NC(=O)[C@H](C)NC(=O)[C@H](Cc1c[nH]cn1)NC(=O)[C@@H](NC(=O)[C@H](C)NC(=O)[C@@H]1CCCN1)C(C)C)C(=O)N[C@@H](CC(=O)O)C(=O)N[C@@H](CCCCN)C(=O)N[C@@H](Cc1ccccc1)C(=O)N[C@@H](CC(C)C)C(=O)N[C@@H](C)C(=O)N[C@@H](C)C(=O)O [HBA1(120–132)S125A + S132A] (H-PAVHAALDKFLAA-OH)
- solubility (precipitation turbidity, optical density) [2]: remained similar to HBA1(120–132)

Compound: K127A: HBA1(120–132) with lysine exchanged for alanine (PAVHASLDAFLAS; UniProt P69905 120-132, looked up, fragment K128A)
- autophagosome levels, versions of HBA1(120–132) (HeLa GL cells [1]): the function to inhibit autophagy was reduced
- solubility (precipitation turbidity, optical density) [2]: precipitates were detected

Compound: CC(C)C[C@H](NC(=O)[C@H](Cc1ccccc1)NC(=O)[C@H](CCCCN)NC(=O)[C@H](CC(=O)O)NC(=O)[C@H](CC(C)C)NC(=O)[C@H](CO)NC(=O)[C@H](C)NC(=O)[C@H](Cc1c[nH]cn1)NC(=O)[C@@H](NC(=O)[C@H](C)NC(=O)[C@@H]1CCCN1C(=O)[C@@H](NC(=O)[C@H](Cc1ccccc1)NC(=O)[C@H](CCC(=O)O)NC(=O)[C@H](C)NC(=O)[C@@H]1CCCN1)[C@@H](C)O)C(C)C)C(=O)N[C@@H](C)C(=O)N[C@@H](CO)C(=O)O [HBA1(115–132)] (H-PAEFTPAVHASLDKFLAS-OH)
- time of appearance of degradation fragment above 5% of total HBA1 content [3]: 180 min

Compound: CCN(CC)CCCC(C)Nc1ccnc2cc(Cl)ccc12 (stereo not drawn) [Chloroquine]
- GFP-LC3B area per cell (puncta = autophagosomes) (HeLa GL cells [4]): expected increase of autophagosomes

Compound: full-length HBA1: full-length hemoglobin A (HB subunit alpha-1)
- effect on autophagosome levels (HeLa GL cells [1]; concentration range 1 mg/ml–7.8 µg/ml, n = 3): did not impact autophagosome levels

Compound: TNF-α
- half-life [5]: around 18 min

Compound: CC(C)C[C@H](NC(=O)[C@H](Cc1ccccc1)NC(=O)[C@H](CCCCN)NC(=O)[C@H](CC(=O)O)NC(=O)[C@H](CC(C)C)NC(=O)[C@H](CO)NC(=O)[C@H](C)NC(=O)[C@H](Cc1c[nH]cn1)NC(=O)[C@@H](NC(=O)[C@H](C)NC(=O)[C@@H]1CCCN1C(=O)[C@@H](NC(=O)[C@H](Cc1ccccc1)NC(=O)[C@H](CCC(=O)O)NC(=O)[C@H](C)NC(=O)[C@@H]1CCCN1C(=O)[C@H](CC(C)C)NC(=O)[C@@H](N)Cc1c[nH]cn1)[C@@H](C)O)C(C)C)C(=O)N[C@@H](C)C(=O)N[C@@H](CO)C(=O)O [HBA1(113–132)] (H-HLPAEFTPAVHASLDKFLAS-OH)
- time of appearance of degradation fragment above 5% of total HBA1 content [3]: ≤ 15 min
- time of peak abundance of degradation fragment post plasma treatment [3]: > 140 min

Compound: CC(C)C[C@H](NC(=O)[C@H](Cc1ccccc1)NC(=O)[C@H](CCCCN)NC(=O)[C@H](CC(=O)O)NC(=O)[C@H](CC(C)C)NC(=O)[C@H](CO)NC(=O)[C@H](C)NC(=O)[C@H](Cc1c[nH]cn1)NC(=O)[C@@H](NC(=O)[C@H](C)NC(=O)[C@@H]1CCCN1C(=O)[C@@H](NC(=O)[C@H](Cc1ccccc1)NC(=O)[C@H](CCC(=O)O)NC(=O)[C@H](C)NC(=O)[C@@H]1CCCN1C(=O)[C@H](CC(C)C)NC(=O)[C@H](Cc1c[nH]cn1)NC(=O)[C@H](C)NC(=O)[C@H](C)N)[C@@H](C)O)C(C)C)C(=O)N[C@@H](C)C(=O)N[C@@H](CO)C(=O)O [HBA1(111–132)] (H-AAHLPAEFTPAVHASLDKFLAS-OH)
- half-life at 8.7 µM (in vitro): 52 min

Compound: CC(C)C[C@H](NC(=O)[C@H](CO)NC(=O)[C@H](C)NC(=O)[C@H](Cc1c[nH]cn1)NC(=O)[C@@H](NC(=O)[C@H](C)NC(=O)[C@@H]1CCCN1)C(C)C)C(=O)N[C@@H](C)C(=O)N[C@@H](C)C(=O)N[C@@H](Cc1ccccc1)C(=O)N[C@@H](CC(C)C)C(=O)N[C@@H](C)C(=O)N[C@@H](CO)C(=O)O [HBA1(120–132)D127A + K128A] (H-PAVHASLAAFLAS-OH)
- solubility (precipitation turbidity, optical density) [2]: almost insoluble in water

Compound: CCC(=O)N1CCN(c2ccc(-n3c(=O)ccc4cnc5ccc(-c6cnc7ccccc7c6)cc5c43)cc2C(F)(F)F)CC1 [Torin-1]
- GFP-LC3B area per cell (puncta = autophagosomes) (HeLa GL cells [4]): expected increase of autophagosomes

Compound: full-length HB: recombinant full-length hemoglobin
- secondary structure in solution (circular dichroism) (Circular dichroism): mainly composed of alpha-helical structures
